Source: US20230242473A1, “THYROMIMETICS” (Autobahn Therapeutics, Inc., priority 2020, published 2023)

How the values were obtained:
TRα = biological target: T1, TRα (Homo sapiens, UniProt P10827); assay: Thyroid-hormone reporter-gene assay, TRα (Gal4 hybrid, luciferase); type: cell-based; settings: HEK293-derived reporter cells, 24 hr treatment, luciferase readout
T1 construct: expressed in transfected cells; host or cells: HEK293-derived reporter cell line
T1 sequence (P10827 128-410 isoform P10827-2 limits assumed): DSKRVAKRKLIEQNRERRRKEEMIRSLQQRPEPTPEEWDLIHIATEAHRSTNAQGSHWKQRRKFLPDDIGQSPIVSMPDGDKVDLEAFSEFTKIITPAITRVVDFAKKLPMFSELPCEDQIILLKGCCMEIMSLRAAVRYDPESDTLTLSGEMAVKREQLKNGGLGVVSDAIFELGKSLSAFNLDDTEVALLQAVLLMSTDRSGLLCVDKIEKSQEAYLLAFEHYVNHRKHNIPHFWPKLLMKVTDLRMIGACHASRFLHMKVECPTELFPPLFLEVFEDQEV
Protocol: (§1) Compounds were tested for thyroid-hormone receptor activity using TR reporter-gene assays. Reporter cells used in the assays express a TR-receptor hybrid (either TRα or TRO) in which the native N-terminal DNA binding domain (DBD) has been replaced with that of the yeast Gal4 DBD. The reporter gene, firefly luciferase, is functionally linked to the Gal4 upstream activation sequence (UAS). Both cell lines were derived from human embryonic kidney (HEK293).
(§2) Step 1: A suspension of reporter cells was prepared in cell recovery medium containing 10% charcoal-stripped FBS, and dispensed into assay plates. The plates were pre-incubated for 6 hours in a cell culture incubator (37° C./5% CO2/85% humidity).
(§3) These intermediate stocks were subsequently diluted directly into compound screening medium containing 10% charcoal-stripped FBS to generate “2×-concentration” treatment media (containing 0.2, 0.4 or 0.8% DMSO).
(§4) Step 3: At the end of the pre-incubation period, culture media were discarded from the assay plates, and all wells received 100 μl of compound screening medium. 100 μl of each of the previously prepared “2×-concentration” treatment media were dispensed into duplicate assay wells, thereby achieving the desired final treatment concentrations. The final concentration of DMSO in all assay wells was 0.1, 0.2 or 0.4%. Assay plates were incubated for 24 hr in a cell culture incubator (37° C./5% CO2/85% humidity).
(§5) Step 4: At the 24 h assay endpoint, treatment media were discarded and 100 µl/well of luciferase detection reagent was added. Relative luminometer units (RLUs) were quantified from each assay well.

TRβ = biological target: T2, TRβ (Homo sapiens, UniProt P10828); assay: Thyroid-hormone reporter-gene assay, TRβ (Gal4 hybrid, luciferase); type: cell-based; settings: for EC50: HEK293-derived reporter cells, 24 hr treatment, luciferase readout; for T3-SI, selectivity index (SI) calculated as EC50 (TRα)/EC50 (TRβ): TRα vs TRβ reporter-gene assays
T2 construct: expressed in transfected cells; host or cells: HEK293-derived reporter cell line
T2 sequence (P10828 217-461 limits assumed): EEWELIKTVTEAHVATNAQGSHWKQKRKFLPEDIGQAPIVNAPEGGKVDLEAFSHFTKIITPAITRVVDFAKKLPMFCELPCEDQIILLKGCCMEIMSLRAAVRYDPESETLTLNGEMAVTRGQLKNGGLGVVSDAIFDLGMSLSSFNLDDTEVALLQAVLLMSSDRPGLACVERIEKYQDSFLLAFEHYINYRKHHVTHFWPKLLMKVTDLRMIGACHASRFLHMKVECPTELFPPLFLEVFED
Protocol: as §1, §2, §3, §4, §5

[1] = biological target: T3, recombinant human FAAH (rhFAAH) (Homo sapiens, UniProt O00519); assay: FAAH substrate evaluation (formation of acid metabolite, LC-MS/MS); type: in vitro ADME; settings: 0.5 ng/μL rhFAAH, 1 μM test compound, pH 8.0, room temperature, 0-60 minutes
T3 construct: purchased Cayman Chemical (Ann Arbor, Mich., USA)
T3 sequence (O00519 1-579): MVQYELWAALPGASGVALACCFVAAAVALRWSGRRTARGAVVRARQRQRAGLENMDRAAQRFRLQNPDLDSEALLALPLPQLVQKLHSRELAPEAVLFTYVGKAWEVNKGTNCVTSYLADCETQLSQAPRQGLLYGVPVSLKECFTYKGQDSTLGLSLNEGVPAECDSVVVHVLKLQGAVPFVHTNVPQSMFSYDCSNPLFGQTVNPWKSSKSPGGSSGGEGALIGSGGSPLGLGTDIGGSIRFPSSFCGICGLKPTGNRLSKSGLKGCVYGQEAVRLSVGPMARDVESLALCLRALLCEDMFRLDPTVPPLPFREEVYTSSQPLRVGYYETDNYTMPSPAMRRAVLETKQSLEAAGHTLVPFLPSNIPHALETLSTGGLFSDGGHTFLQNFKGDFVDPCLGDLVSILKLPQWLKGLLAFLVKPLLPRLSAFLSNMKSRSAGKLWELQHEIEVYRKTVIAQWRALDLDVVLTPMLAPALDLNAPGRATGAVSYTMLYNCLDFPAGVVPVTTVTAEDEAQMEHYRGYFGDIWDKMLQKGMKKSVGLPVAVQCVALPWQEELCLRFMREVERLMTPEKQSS
Protocol: Purified recombinant human FAAH (rhFAAH) was purchased from Cayman Chemical (Ann Arbor, Mich., USA). The total volume for each incubation was 400 μL containing a final 0.5 ng/μL rhFAAH, 1 μM test compound, 1.25% ethanol or 1 μM PF-3845 (FAAH inhibitor), and 0.1% bovine serum albumin in Tris-EDTA buffer at pH 8.0). The positive control was LL-341001. The incubation was conducted at the room temperature. At 0, 5, 15, 30 and 60 minutes, an aliquot of 30 μL reaction mixtures was removed and mixed with 300 μL acetonitrile containing 5 ng/mL terfenadine and 10 ng/mL tolbutamide as internal standards to quench the reaction. The resulting mixture was centrifuged at 4000 rpm, 4° C. for 15 minutes, and 100 μL supernatant was ready for LC-MS/MS analysis to measure the formation of acid metabolite.
Acquity Ultra Performance LC system from Waters was used for sample analysis. The chromatography was performed on a reverse phase Kinetex 2.6 μm C18 column, 2.1×30 mm, 100 Å. The mobile phase A comprised of 0.10% formic acid in water and mobile phase B comprised of 0.1% formic acid in acetonitrile with a 2-min run time at the flow rate of 0.8 mL/min for the acid metabolite from positive control or a 1.5 min run time at the flow rate of 0.9 mL/min for the acid metabolite of test compounds. The mass spectrometer (API-5500 and API Q Trap 4000 Applied Biosystems/MDS SCIEX Instruments, Framingham, Mass., USA) was operated under ESI positive or negative ion MRM mode.
The formation of acid metabolite was monitored and quantified using one calibration point of 1 μM. The observed rate constant (ke) for the acid metabolite formation was calculated by plotting the metabolite concentration versus time of incubation with the slope being ke and is shown in Table 4.

Row | EC50 (TRα) | EC50 (TRβ) | T3-SI, selectivity index (SI) calculated as EC50 (TRα)/EC50 (TRβ) (TRβ) | SMILES | ke, observed rate constant for the acid metabolite formation [1]
1 | > 1 µM | 0.1 to 1 µM | ++ (++3X<T3−SI≤30X) | CC(C)c1c(O)ccc(Cc2ccc(OCC(=O)O)c3c2CCC3)c1F [Compound 2, 2-((7-(2-fluoro-4-hydroxy-3-isopropylbenzyl)-2,3-dihydro-1H-inden-4-yl)oxy)acetic acid] | 
2 | > 1 µM | > 1 µM |  | CC(C)c1c(O)ccc(Cc2ccc(OCC(=O)O)c3c2C(C)CC3)c1F (centres unmarked) [Compound 4, 2-((7-(2-fluoro-4-hydroxy-3-isopropylbenzyl)-1-methyl-2,3-dihydro-1H-inden-4-yl)oxy)acetic acid] | 
3 | 0.1 to 1 µM | 0.01 to 0.1 µM | ++ (++3X<T3−SI≤30X) | Cc1cc(OCC(=O)O)c2c(c1Cc1ccc(O)c(C(C)C)c1)CCC2 [Compound 6, 2-((7-(4-hydroxy-3-isopropylbenzyl)-6-methyl-2,3-dihydro-1H-inden-4-yl)oxy)acetic acid] | 
4 | 0.01 to 0.1 µM | < 0.01 µM | ++ (++3X<T3−SI≤30X) | Cc1cc(OCC(=O)O)c2c(c1Cc1ccc(O)c(C(C)c3ccc(F)cc3)c1)CCC2 (centres unmarked) [Compound 8, 2-((7-(3-(1-(4-fluorophenyl)ethyl)-4-hydroxybenzyl)-6-methyl-2,3-dihydro-1H-inden-4-yl)oxy)acetic acid] | 
5 | 0.01 to 0.1 µM | < 0.01 µM | ++ (++3X<T3−SI≤30X) | Cc1cc(OCC(=O)O)c2c(c1Cc1ccc(O)c(C(C)C)c1F)CCC2 [Compound 10, 2-((7-(2-fluoro-4-hydroxy-3-isopropylbenzyl)-6-methyl-2,3-dihydro-1H-inden-4-yl)oxy)acetic acid] | 
6 |  |  |  | CNC(=O)COc1cc(C)c(Cc2ccc(O)c(C(C)C)c2F)c2c1CCC2 [Compound 11, 2-((7-(2-fluoro-4-hydroxy-3-isopropylbenzyl)-6-methyl-2,3-dihydro-1H-inden-4-yl)oxy)-N-methylacetamide] | A (A = ke is less than 2.0 and more than or equal to 0.05)
7 | > 1 µM | 0.1 to 1 µM | ++ (++3X<T3−SI≤30X) | CC(C)c1cc(Cc2ccc(OCC(=O)O)c3ccccc23)ccc1O [Compound 14, 2-((4-(4-hydroxy-3-isopropylbenzyl)naphthalen-1-yl)oxy)acetic acid] | 
8 | > 1 µM | > 1 µM | ++ (++3X<T3−SI≤30X) | CC(C)c1cc(Cc2cc(F)c(OCC(=O)O)c3c2CCC3)ccc1O [Compound 16, 2-((5-fluoro-7-(4-hydroxy-3-isopropylbenzyl)-2,3-dihydro-1H-inden-4-yl)oxy)acetic acid] | 
9 | > 1 µM | > 1 µM | + (+T3−SI≤3X) | CC(C)c1cc(Cc2cc(F)c(OCC(=O)O)cc2C(F)(F)F)ccc1O [Compound 18, 2-(2-fluoro-4-(4-hydroxy-3-isopropylbenzyl)-5-(trifluoromethyl)phenoxy)acetic acid] | 
10 | > 1 µM | 0.1 to 1 µM | ++ (++3X<T3−SI≤30X) | CC(C)c1c(O)ccc(Cc2ccc(OCC(=O)O)cc2Cl)c1F [Compound 20, 2-(3-chloro-4-(2-fluoro-4-hydroxy-3-isopropylbenzyl)phenoxy)acetic acid] | 
11 | > 1 µM | 0.1 to 1 µM | ++ (++3X<T3−SI≤30X) | C=C(C)c1cc(OCC(=O)O)ccc1Cc1ccc(O)c(C(C)C)c1F [Compound 23, 2-(4-(2-fluoro-4-hydroxy-3-isopropylbenzyl)-3-(prop-1-en-2-yl)phenoxy)acetic acid] | 
12 | 0.1 to 1 µM | 0.01 to 0.1 µM | ++ (++3X<T3−SI≤30X) | CC(C)c1cc(OCC(=O)O)ccc1Cc1ccc(O)c(C(C)C)c1F [Compound 25, 2-(4-(2-fluoro-4-hydroxy-3-isopropylbenzyl)-3-isopropylphenoxy)acetic acid] | 
13 | > 1 µM | > 1 µM |  | CC(C)c1c(O)ccc(Cc2ccc(OCC(=O)O)c(F)c2Cl)c1F [Compound 27, 2-(3-chloro-2-fluoro-4-(2-fluoro-4-hydroxy-3-isopropylbenzyl)phenoxy)acetic acid] | 
14 | > 1 µM | 0.1 to 1 µM | +++ (+++T3−SI>30X) | CC(C)c1c(O)ccc(Cc2cc(F)c(OCC(=O)O)cc2Cl)c1F [Compound 29, 2-(5-chloro-2-fluoro-4-(2-fluoro-4-hydroxy-3-isopropylbenzyl)phenoxy)acetic acid] | 
15 | > 1 µM | > 1 µM | ++ (++3X<T3−SI≤30X) | CC(C)c1c(O)ccc(Cc2ccc(OCC(=O)O)c(F)c2C(C)C)c1F [Compound 31, 2-(2-fluoro-4-(2-fluoro-4-hydroxy-3-isopropylbenzyl)-3-isopropylphenoxy)acetic acid] | 
16 | 0.1 to 1 µM | 0.1 to 1 µM | ++ (++3X<T3−SI≤30X) | CC(C)c1cc(Cc2cc(F)c(OCC(=O)O)cc2C(C)C)ccc1O [Compound 36, 2-(2-fluoro-4-(4-hydroxy-3-isopropylbenzyl)-5-isopropylphenoxy)acetic acid] | 
17 |  | > 1 µM |  | CC(C)c1cc(Cc2cc(F)c(OCC(=O)O)c(F)c2Cl)ccc1O [Compound 38, 2-(3-chloro-2,6-difluoro-4-(4-hydroxy-3-isopropylbenzyl)phenoxy)acetic acid] | 
18 |  |  |  | CNC(=O)COc1cc(Cl)c(Cc2ccc(O)c(C(C)C)c2F)cc1F [Compound 39, 2-(5-chloro-2-fluoro-4-(2-fluoro-4-hydroxy-3-isopropylbenzyl)phenoxy)-N-methylacetamide] | A (A = ke is less than 2.0 and more than or equal to 0.05)
19 |  |  |  | C=C(C)c1cc(OCC(=O)NC)ccc1Cc1ccc(O)c(C(C)C)c1F [Compound 41, 2-(4-(2-fluoro-4-hydroxy-3-isopropylbenzyl)-3-(prop-1-en-2-yl)phenoxy)-N-methylacetamide] | A (A = ke is less than 2.0 and more than or equal to 0.05)
